Laboratory results: US20250288603A1, “ANIMAL FOOD COMPOSITION COMPRISING A SOURCE OF GLYCYRRHIZIN” (MARS, INCORPORATED, priority 2022, published 2025)

Columns and labels:
[1] = dogs; cited from earlier work
[2] = system: healthy adult dogs; test: Glycyrrhizin safety study: systolic blood pressure (oscillometric method); assay type: in vivo, dog; conditions: for effect on blood pressure, D0 versus any later time point: adult dogs, 0.2, 0.4 and 0.6 mg/kg Bwt/day, 28 days each; for overall mean systolic blood pressure: dogs
Text: (§1) Dogs. Sixteen privately owned healthy adult dogs, both male and female, were included in the study. In particular, the dogs were Beagles, Brittany spaniels or Dachshunds weighing between 5 and 21 kg. Twelve dogs were females and four dogs were males.
(§2) Glycyrrhizin Source. The glycyrrhizin source was provided by a licorice root extract comprising 12% glycyrrhizin formulated in gelatin capsules. The licorice root extract was commercially obtained from Naturex (Avignon, France), product reference DAB40178.
(§3) Commercially available pharmaceutical grade gelatin capsules (Capsuline, Dania Beach, Florida, US) were filled to capacity with precisely weight mixtures of licorice powder and 100% pure maltodextrin powder (Bulk Powders, Colchester, UK). The weighed combinations of licorice and maltodextrin powders were prepared in such a way that, when mixed together and placed in the capsules, provided the dogs with daily glycyrrhizin doses according to the schedule of 0.2 mg/kg Bwt/day, followed by 0.4 mg/kg Bwt/day, followed by 0.6 mg/kg Bwt/day.
(§4) Dosage. The doses to be administered to each dog were calculated based on five different bodyweight groups. Separate capsules were weighed out for each group. The licorice root extract was mixed with maltodextrin order to deliver the same volume of overall powdered material to each dog. Capsules were fed to the dogs inside a meatball of wet petfood.
(§5) In total, three different doses of glycyrrhizin were fed to the dogs, in each case for 28 days. These dosages were 0.2 mg/kg of Bwt/day, 0.4 mg/kg of Bwt/day, and 0.6 mg/kg of Bwt/day.
(§6) Each of the dogs underwent the following protocol cycle, which was repeated for each of the tested concentrations. The first cycle was dosed at 0.2 mg of glycyrrhizin (Gly)/kg Bwt/day. The second cycle was dosed at 0.4 mg Gly/kg Bwt/day. The third cycle was dosed at 0.6 mg Gly/kg Bwt/day.
[…]: Baseline measurements were taken: blood pressure and potassium, sodium and calcium, creatinine and aldosterone concentrations in the blood and urine.
Day 0: Dosing of licorice began (the concentration of glycyrrhizin is adapted according to the first, second or third cycle of the protocol, as indicated above). One dose was provided to each dog per day, with their morning meal.
Days 1-27: One dose was provided to each dog per day, with their morning meal.
(§7) Days 2, 4, 7, 14, 21 and 28: Blood pressure and potassium, sodium and calcium, creatinine and aldosterone concentrations in the blood and urine measurements were taken.
Day 28: Washout began and the dogs returned to their maintenance diet alone, i.e., no more licorice was fed to them. The washout period lasted two weeks. At days 34 and 41 blood pressure and potassium, sodium and calcium, creatinine and aldosterone concentrations in the blood and urine measurements were taken again.
Protocol Details. The licorice root extract was dosed according to the given glycyrrhizin (Gly) concentrations for each cycle of the protocol in sequence: 0.2 mg/kg Bwt/day, 0.4 mg/kg Bwt/day, and 0.6 mg/kg Bwt/day.
Blood pressure was measured for each animal on multiple occasions, the first reading being discarded. BP was measured via the Oscillometric method. Each measurement, if it was shown that a dog's average blood pressure has risen to a potentially deleterious level (normally >160 mmgHg), could result in removal of a dog from the study (temporarily or permanently), according to veterinarian's discretion. All dogs were habituated to the Oscillometic device and the process of BP measurement before the start of the study. If there was evidence of stress for any dog before or during the BP procedure, the procedure for that dog was stopped and restarted when the dog was calmed again. Where necessary a dog could be given interim intensive habituation. […] Typical blood pressure ranges for the 3 breeds used were known and were considered when judging the normality of the BP measurements taken during the study. […]

[3] = system: healthy adult dogs; test: Glycyrrhizin safety study: plasma aldosterone concentration; assay type: in vivo, dog; conditions: adult dogs, 0.2, 0.4 and 0.6 mg/kg Bwt/day, 28 days each
Text: as §1, §2
Commercially available pharmaceutical grade gelatin capsules (Capsuline, Dania Beach, Florida, US) were filled to capacity with precisely weight mixtures of licorice powder and 100% pure maltodextrin powder (Bulk Powders, Colchester, UK). […]
Dosage. The doses to be administered to each dog were calculated based on five different bodyweight groups. […]
Small volume blood samples (4 ml) were taken on the days indicated in the protocol description above in order to determine blood potassium, sodium and calcium, creatinine and aldosterone concentration. […] Urinary creatinine concentrations were also measured so that Fractional Excretion Rate (FER) for sodium, potassium and calcium could be calculated. […]

[4] = system: healthy adult dogs; test: Glycyrrhizin safety study: fractional potassium excretion; assay type: in vivo, dog; conditions: for effect on fractional potassium excretion, D0 versus any later time point: adult dogs, 0.2, 0.4 and 0.6 mg/kg Bwt/day, 28 days each; for overall mean fractional potassium excretion: dogs
Text: as §1, §2, §3, §4, §5, §6, §7
Small volume blood samples (4 ml) were taken on the days indicated in the protocol description above in order to determine blood potassium, sodium and calcium, creatinine and aldosterone concentration. Free catch urine (minimum 3 ml) was conducted on each day as indicated above in order to determine concentrations of urinary potassium, sodium and calcium. Urinary creatinine concentrations were also measured so that Fractional Excretion Rate (FER) for sodium, potassium and calcium could be calculated.
FER is calculated according to the equation: […]
Statistics: A linear mixed model was used for assessing the effect of Diet (Glycyrrhizin dose). Animal was modelled as random term. Tukey HSD was used for alpha correction for multiple comparisons. Level of significance was set at 5% for two-sided test.
Fractional Potassium Excretion. The results are expressed in percentage of the potassium excreted in the urine as compared to the amount of potassium filtered and retained by the kidneys.

[5] = 0.2 mg Gly/kg Bwt/day oral, Day 0
[6] = 0.2 mg Gly/kg Bwt/day oral, Day 2
[7] = 0.2 mg Gly/kg Bwt/day oral, Day 4
[8] = 0.2 mg Gly/kg Bwt/day oral, Day 7
[9] = 0.2 mg Gly/kg Bwt/day oral, Day 14
[10] = 0.2 mg Gly/kg Bwt/day oral, Day 21
[11] = 0.2 mg Gly/kg Bwt/day oral, Day 28
[12] = 0.4 mg Gly/kg Bwt/day oral, Day 0
[13] = 0.4 mg Gly/kg Bwt/day oral, Day 2
[14] = 0.4 mg Gly/kg Bwt/day oral, Day 4
[15] = 0.4 mg Gly/kg Bwt/day oral, Day 7
[16] = 0.4 mg Gly/kg Bwt/day oral, Day 14
[17] = 0.4 mg Gly/kg Bwt/day oral, Day 21
[18] = 0.4 mg Gly/kg Bwt/day oral, Day 28
[19] = 0.6 mg Gly/kg Bwt/day oral, Day 0
[20] = 0.6 mg Gly/kg Bwt/day oral, Day 2
[21] = 0.6 mg Gly/kg Bwt/day oral, Day 4
[22] = 0.6 mg Gly/kg Bwt/day oral, Day 7
[23] = 0.6 mg Gly/kg Bwt/day oral, Day 14
[24] = 0.6 mg Gly/kg Bwt/day oral, Day 21
[25] = 0.6 mg Gly/kg Bwt/day oral, Day 28

In the case of CC1(C)[C@@H](O[C@H]2O[C@H](C(=O)O)[C@@H](O)[C@H](O)[C@H]2O[C@@H]2O[C@H](C(=O)O)[C@@H](O)[C@H](O)[C@H]2O)CC[C@]2(C)[C@H]3C(=O)C=C4[C@@H]5C[C@@](C)(C(=O)O)CC[C@]5(C)CC[C@@]4(C)[C@]3(C)CC[C@@H]12 [Gly, glycyrrhizin], the “Presumed Safe Intake (PSI)” value [1] is listed as 1 mg/kg of complete feed, the “Presumed Safe Intake (PSI), estimated amount per bodyweight” value [1] is listed as ~0.02 mg/kg of bodyweight (Bwt) per day and the “Presumed Safe Intake (PSI), estimated daily amount” value [1] is listed as ~0.3 mg/day. For the same compound, the “effect on blood pressure, D0 versus any later time point” value [2] was “no significant difference”, the “effect on blood pressure, D0 versus any later time point” value ([2]; listed as Glycyrrhizin) was “no significant impact” and the “overall mean systolic blood pressure” value [2, 5] was 120 mmHg. The “overall mean systolic blood pressure” value [2, 6] was 127 mmHg, the “overall mean systolic blood pressure” value [2, 7] was 125 mmHg and the “overall mean systolic blood pressure” value [2, 8] was 126 mmHg. The “overall mean systolic blood pressure” value [2, 9] was 126 mmHg, the “overall mean systolic blood pressure” value [2, 10] was 122 mmHg and the “overall mean systolic blood pressure” value [2, 11] was 121 mmHg. The “overall mean systolic blood pressure” value [2, 12] was 118 mmHg, the “overall mean systolic blood pressure” value [2, 13] was 117 mmHg and the “overall mean systolic blood pressure” value [2, 14] was 119 mmHg. For the same compound, the “overall mean systolic blood pressure” value [2, 15] was 125 mmHg, the “overall mean systolic blood pressure” value [2, 16] was 122 mmHg and the “overall mean systolic blood pressure” value [2, 17] was 120 mmHg. The “overall mean systolic blood pressure” value [2, 18] was 124 mmHg, the “overall mean systolic blood pressure” value [2, 19] was 125 mmHg and the “overall mean systolic blood pressure” value [2, 20] was 119 mmHg. The “overall mean systolic blood pressure” value [2, 21] was 123 mmHg, the “overall mean systolic blood pressure” value [2, 22] was 125 mmHg and the “overall mean systolic blood pressure” value [2, 23] was 123 mmHg. For the same compound, the “overall mean systolic blood pressure” value [2, 24] was 124 mmHg, the “overall mean systolic blood pressure” value [2, 25] was 122 mmHg and the “effect on plasma aldosterone concentration, D0 versus any later time point” value [3] was “no significant difference”. For the same compound, the “effect on plasma aldosterone concentration, D0 versus any later time point” value ([3]; listed as Glycyrrhizin) was “no significant impact”, the “effect on fractional potassium excretion, D0 versus any later time point” value [4] was “no significant difference” and the “effect on fractional potassium excretion, D0 versus any later time point” value ([4]; listed as Glycyrrhizin) was “no significant impact”. For the same compound, the “overall mean fractional potassium excretion” value [4, 5] was 16.54%, the “overall mean fractional potassium excretion” value [4, 6] was 15.74% and the “overall mean fractional potassium excretion” value [4, 7] was 15.59%. For the same compound, the “overall mean fractional potassium excretion” value [4, 8] was 15.06%, the “overall mean fractional potassium excretion” value [4, 9] was 13.33% and the “overall mean fractional potassium excretion” value [4, 10] was 20.02%. For the same compound, the “overall mean fractional potassium excretion” value [4, 11] was 16.54%, the “overall mean fractional potassium excretion” value [4, 12] was 16.02% and the “overall mean fractional potassium excretion” value [4, 13] was 15.56%. For the same compound, the “overall mean fractional potassium excretion” value [4, 14] was 16.02%, the “overall mean fractional potassium excretion” value [4, 15] was 15.72% and the “overall mean fractional potassium excretion” value [4, 16] was 16.87%. The “overall mean fractional potassium excretion” value [4, 17] was 16.09%, the “overall mean fractional potassium excretion” value [4, 18] was 16.27% and the “overall mean fractional potassium excretion” value [4, 19] was 16.48%. For the same compound, the “overall mean fractional potassium excretion” value [4, 20] was 18.08%, the “overall mean fractional potassium excretion” value [4, 21] was 17.48% and the “overall mean fractional potassium excretion” value [4, 22] was 13.15%. For the same compound, the “overall mean fractional potassium excretion” value [4, 23] was 15.64%, the “overall mean fractional potassium excretion” value [4, 24] was 14.93% and the “overall mean fractional potassium excretion” value [4, 25] was 16.48%.
